In ChEMBL document CHEMBL4699625, “Callyspongiolide Is a Potent Inhibitor of the Vacuolar ATPase” (J Nat Prod, 2020):
Calls of active or inactive are those of the source. The calls are words filed in the database; no cut-off is given here.

Assays:
Saccharomyces cerevisiae [1] = test: Growth inhibition of Saccharomyces cerevisiae W303 at 10 uM after 2 to 3 days in ammonium iron(II) sulfate condition; type: functional, organism-based; settings: time day 2-3
[2] = Inhibition of V-ATpase in Saccharomyces cerevisiae […] vacuolar membranes after 10 mins by spectrophotometric based coupled enzyme assay; type: cell membranes, Saccharomyces cerevisiae W303, Membrane
Saccharomyces cerevisiae [3] = test: Growth inhibition of Saccharomyces cerevisiae W303 pdr5 deletion mutant at 0.5 to 10 uM after 2 to 3 days at pH 5 condition; type: functional, organism-based; settings: dose microM 0.5-10, time day 2-3
Jurkat [4] = test: Cytotoxicity against human Jurkat cells assessed as reduction in cell viability in presence of pan-caspase inhibitor Z-VAD-FMK relative to control; type: functional
Saccharomyces cerevisiae [5] = test: Growth inhibition of Saccharomyces cerevisiae W303 pdr5 deletion mutant at 10 uM after 2 to 3 days in ammonium iron(II) sulfate condition; type: functional, organism-based; settings: time day 2-3
[6] = test system: Saccharomyces cerevisiae W303; test: Inhibition of V-ATpase in Saccharomyces cerevisiae W303 assessed as quinacrine accumulation in the cytosol at 10 uM after 4 hrs by fluorescence microscopic method; type: subcellular
Jurkat [7] = test: Cytotoxicity against human Jurkat cells assessed as reduction in cell viability; type: functional, cell-based
Saccharomyces cerevisiae [8] = test: Growth inhibition of Saccharomyces cerevisiae W303 at 10 uM after 2 to 3 days in glycerol condition relative to control; type: functional; settings: time day 2-3, read-out: GI
[9] = test system: Saccharomyces cerevisiae W303; test: Inhibition of V-ATpase in Saccharomyces cerevisiae W303 pdr5 deletion mutant assessed as quinacrine accumulation in the cytosol at 10 uM after 4 hrs by fluorescence microscopic method; type: subcellular
Saccharomyces cerevisiae [10] = test: Antifungal activity against Saccharomyces cerevisiae W303 assessed as reduction in microbial growth at 10 uM after 2 to 3 days; type: functional, organism-based; settings: time day 2-3
Saccharomyces cerevisiae [11] = test: Antifungal activity against Saccharomyces cerevisiae W303 pdr5 deletion mutant assessed as reduction in microbial growth at 0.5 uM after 2 to 3 days; type: functional, organism-based; settings: time day 2-3
Saccharomyces cerevisiae [12] = test: Growth inhibition of Saccharomyces cerevisiae W303 at 0.5 to 10 uM after 2 to 3 days at pH 7.5 condition; type: functional, organism-based; settings: dose microM 0.5-10, time day 2-3
Saccharomyces cerevisiae [13] = test: Growth inhibition of Saccharomyces cerevisiae W303 pdr5 deletion mutant at 0.5 to 10 uM after 2 to 3 days at pH 7.5 condition; type: functional, organism-based; settings: dose microM 0.5-10, time day 2-3
[14] = test system: Saccharomyces cerevisiae W303; test: Inhibition of V-ATpase in Saccharomyces cerevisiae […] vacuolar membranes at 80 nM after 10 mins by spectrophotometric based coupled enzyme assay; type: cell membranes; settings: Membrane
Saccharomyces cerevisiae [15] = test: Growth inhibition of Saccharomyces cerevisiae W303 pdr5 deletion mutant at 10 uM after 2 to 3 days in glycerol condition relative to control; type: functional; settings: time day 2-3, read-out: GI
Saccharomyces cerevisiae [16] = test: Growth inhibition of Saccharomyces cerevisiae W303 at 0.5 to 10 uM after 2 to 3 days at pH 5 condition; type: functional, organism-based; settings: dose microM 0.5-10, time day 2-3
Saccharomyces cerevisiae [17] = test: Growth inhibition of Saccharomyces cerevisiae W303 pdr5 deletion mutant at 0.5 uM after 2 to 3 days in ammonium iron(II) sulfate condition; type: functional, organism-based; settings: time day 2-3
Saccharomyces cerevisiae [18] = test: Growth inhibition of Saccharomyces cerevisiae W303 at 0.5 uM after 2 to 3 days in ammonium iron(II) sulfate condition; type: functional, organism-based; settings: time day 2-3
Saccharomyces cerevisiae [19] = test: Growth inhibition of Saccharomyces cerevisiae W303 at 0.5 uM after 2 to 3 days in glycerol condition relative to control; type: functional; settings: time day 2-3, read-out: GI
Saccharomyces cerevisiae [20] = test: Inhibition of V-ATpase in Saccharomyces cerevisiae BY4742 vacuolar membranes at 100 nM after 10 mins by spectrophotometric based coupled enzyme assay relative to control; type: cell membranes; settings: Membrane
[21] = test system: Saccharomyces cerevisiae W303; test: Inhibition of V-ATpase in Saccharomyces cerevisiae W303 pdr5 deletion mutant assessed as quinacrine accumulation in the cytosol at 0.5 uM after 4 hrs by fluorescence microscopic method; type: subcellular
Saccharomyces cerevisiae [22] = test: Growth inhibition of Saccharomyces cerevisiae W303 pdr5 deletion mutant at 0.5 uM after 2 to 3 days in glycerol condition relative to control; type: functional; settings: time day 2-3, read-out: GI
[23] = test system: Saccharomyces cerevisiae W303; test: Inhibition of V-ATpase in Saccharomyces cerevisiae W303 assessed as quinacrine accumulation in the cytosol at 0.5 uM after 4 hrs by fluorescence microscopic method; type: subcellular

C[C@@H]1C/C=C\C(=O)O[C@H](/C=C/C#C/C=C/C(C)(C)[C@@H](O)c2cccc(O)c2Br)[C@@H](C)/C=C/[C@H](C)C[C@H](OC(N)=O)C1
growth inhibition (GI) (Saccharomyces cerevisiae [1]): inactive | IC50 [2]: 9.91 nM | growth inhibition (GI) (Saccharomyces cerevisiae [3]): Active | Activity (Jurkat [4]): <3% | growth inhibition (GI) (Saccharomyces cerevisiae [5]): inactive | inhibition [6]: Active | IC50 (Jurkat [7]): 43 nM | inhibition of growth at 10 µM (Saccharomyces cerevisiae [8]): 100% | inhibition [9]: Active | Activity (Saccharomyces cerevisiae [10]): Active | Activity (Saccharomyces cerevisiae [11]): Active | growth inhibition (GI) (Saccharomyces cerevisiae [12]): Active | growth inhibition (GI) (Saccharomyces cerevisiae [13]): Active | inhibition [14]: Active | inhibition of growth at 10 µM (Saccharomyces cerevisiae [15]): 100% | growth inhibition (GI) (Saccharomyces cerevisiae [16]): Active

C[C@@H]1C/C=C/C(=O)O[C@H](/C=C/C#C/C=C/C(C)(C)[C@@H](O)c2cccc(O)c2Br)[C@@H](C)/C=C/[C@H](C)C[C@H](OC(N)=O)C1
IC50 (Jurkat [7]): 115 nM

CO/C1=C\C(C)=C\[C@@H](C)[C@@H](O)[C@@H](C)C/C(C)=C/C=C/[C@H](OC)[C@@H]([C@@H](C)[C@@H](O)[C@H](C)[C@@]2(O)C[C@@H](O)[C@H](C)[C@@H](C(C)C)O2)OC1=O [BAFILOMYCIN A1]
IC50 [2]: 4 nM

C/C=C/[C@H]1O[C@@](O)([C@@H](C)[C@H](O)[C@H](C)[C@H]2OC(=O)/C(OC)=C/C(C)=C/[C@@H](C)[C@@H](O)[C@@H](CC)[C@@H](O)[C@H](C)C/C(C)=C/C=C/[C@@H]2OC)C[C@@H](O[C@H]2C[C@@H](O)[C@H](OC(N)=O)[C@@H](C)O2)[C@@H]1C [CONCANAMYCIN A]
growth inhibition (GI) (Saccharomyces cerevisiae [17]): inactive | IC50 [2]: 3 nM | growth inhibition (GI) (Saccharomyces cerevisiae [18]): inactive | inhibition of growth at 0.5 µM (Saccharomyces cerevisiae [19]): 100% | inhibition (Saccharomyces cerevisiae [20]): 75% | inhibition [21]: Active | Activity (Saccharomyces cerevisiae [11]): Active | inhibition of growth at 0.5 µM (Saccharomyces cerevisiae [22]): 100% | inhibition [23]: Active
